Earlier results in US5843713A, “Peptide sequence that forms mucin sugar chain and technique for modifying protein to be linked with mucin sugar chain” (Kirin Beer Kabushiki Kaisha, priority 1994, dated 1998).

tested on: O-GalNAc T derived from swine submaxillary gland; conditions: literature, Biochemistry Vol.18 (1979)

Substance	GalNAc acceptor activity
PRTPPP: literature peptide derived from bovine myelin basic protein	highly active GalNAc acceptors
TPPP: literature peptide derived from bovine myelin basic protein (RTPPP)	highly active GalNAc acceptors
TPRTPPP [literature peptide derived from bovine myelin basic protein]	highly active GalNAc acceptors

tested on: crude enzyme solution of O-GalNAc T extracted from human breast cancer cells MCF7; conditions: literature, J. Biol. Chem. Vol.269 (1994)

Substance	transfer of GalNAc
PDTRPPAGS [literature peptide analogous to repetitive region of human mucin MUC1]	no transfer of GalNAc is observed
PDTRAPPGS [literature peptide analogous to repetitive region of human mucin MUC1]	no transfer of GalNAc is observed
PDTRPAPGS [literature peptide analogous to repetitive region of human mucin MUC1]	no transfer of GalNAc is observed
